Measurements as given in article PMC5714280 (Bioorganic & medicinal chemistry letters, 2017).

Columns and labels:
[1] = Stability in solution and photo-stability; type: physicochemical; conditions: for photo-stability: exposed to normal fluorescent light, aryl iodide
MDA-MB-468 cells = assay: Cell viability assay; type: cell-based; conditions: Cell Titer Glo
androgen receptor (AR) = target: T1, androgen receptor (AR) (Homo sapiens, UniProt P10275); assay: Androgen reporter assay; type: cell-based
T1 sequence (P10275 1-920): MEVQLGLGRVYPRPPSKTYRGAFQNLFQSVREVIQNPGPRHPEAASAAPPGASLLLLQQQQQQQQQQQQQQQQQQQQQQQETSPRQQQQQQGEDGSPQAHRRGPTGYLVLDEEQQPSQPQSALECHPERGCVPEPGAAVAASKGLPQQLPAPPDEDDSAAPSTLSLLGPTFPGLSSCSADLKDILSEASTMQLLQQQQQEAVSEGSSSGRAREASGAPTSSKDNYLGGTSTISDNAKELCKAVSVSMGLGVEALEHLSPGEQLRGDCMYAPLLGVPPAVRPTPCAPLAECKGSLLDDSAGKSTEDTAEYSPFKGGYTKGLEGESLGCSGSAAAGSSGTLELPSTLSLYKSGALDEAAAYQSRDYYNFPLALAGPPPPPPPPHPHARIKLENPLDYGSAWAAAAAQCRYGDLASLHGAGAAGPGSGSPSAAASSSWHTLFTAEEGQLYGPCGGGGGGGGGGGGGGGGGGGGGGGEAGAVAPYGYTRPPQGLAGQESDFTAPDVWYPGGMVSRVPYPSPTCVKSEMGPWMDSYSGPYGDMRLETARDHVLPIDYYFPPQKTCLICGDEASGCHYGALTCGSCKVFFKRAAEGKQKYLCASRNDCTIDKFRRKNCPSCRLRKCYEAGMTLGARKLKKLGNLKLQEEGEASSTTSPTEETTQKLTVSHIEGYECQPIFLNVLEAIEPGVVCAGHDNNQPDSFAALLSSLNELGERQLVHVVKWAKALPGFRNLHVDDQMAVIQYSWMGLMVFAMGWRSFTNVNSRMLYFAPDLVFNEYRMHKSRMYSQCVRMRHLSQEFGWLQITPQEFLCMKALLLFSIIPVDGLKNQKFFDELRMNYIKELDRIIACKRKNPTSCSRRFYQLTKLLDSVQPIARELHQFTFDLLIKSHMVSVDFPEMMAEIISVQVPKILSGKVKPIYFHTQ

Plasma stability, mouse = type: in vitro ADME
Sigma1 = Sigma1 (Homo sapiens, UniProt Q99720); assay: In vitro radio-ligand binding assay using membranes from MDA-MB-468 cancer cells; conditions: for fold decrease in binding affinity compared to IPAG: relative to IPAG
Chain of Sigma1 (Q99720 whole entry): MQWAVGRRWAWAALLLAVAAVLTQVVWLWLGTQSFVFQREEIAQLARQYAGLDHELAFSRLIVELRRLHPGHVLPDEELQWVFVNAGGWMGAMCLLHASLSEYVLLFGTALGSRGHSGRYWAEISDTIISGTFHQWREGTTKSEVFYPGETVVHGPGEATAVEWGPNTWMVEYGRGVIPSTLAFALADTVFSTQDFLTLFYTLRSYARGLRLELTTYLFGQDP

Plasma stability, human = type: in vitro ADME
[2] = Mouse pharmacokinetic exposure, IP, plasma and brain; conditions: male, Swiss, brain, 10 mg/kg
[3] = Mouse pharmacokinetics, IV and oral, plasma levels; type: in vivo, Male Swiss Mice; conditions: for V / AUC / clearance: 2 mg/kg IV; for AUC / clearance: male, Swiss, mouse, plasma, iv, 2 mg/kg; for AUC: AUC0−¥; for clearance: CL

| Structure (SMILES) | photo-stability [1] | antiproliferative activity, potency (MDA-MB-468 cells) | Plasma Stability Mouse (Plasma stability, mouse) | fold decrease in binding affinity compared to IPAG (Sigma1) | acute cytotoxicity (MDA-MB-468 cells) | Plasma Stability Human (Plasma stability, human) | other results |
| --- | --- | --- | --- | --- | --- | --- | --- |
| NC(=NC12CC3CC(CC(C3)C1)C2)Nc1ccc(I)cc1 [IPAG, (1-adamantan-1-yl)-3-(4-iodophenyl)guanidine, reference compound] | particularly unstable when exposed to normal fluorescent light | 3000 to 20000 nM |  |  |  |  | stability in solution ([1]; in solution): unstable when in solution |
| C[C@]12CC[C@H](O)CC1=CC[C@@H]1[C@@H]2CC[C@]2(C)C(c3cccnc3)=CC[C@@H]12 [abiraterone] |  |  |  |  |  |  | EC50 (androgen receptor (AR)): 17100 nM |
| N=C(NCCCOc1ccc(F)cc1)Nc1ccc(I)cc1 [compound 1] | photo-stability issue similar to IPAG | 3000 to 20000 nM | >6 h | 5–10 fold | not acutely cytotoxic | >6 h |  |
| N=C(Nc1ccc(I)cc1)Nc1ccc(I)cc1 [compound 2] | photo-stability issue similar to IPAG |  |  |  |  |  | Sigma1 binding affinity (in words) (Sigma1): binding affinity similar to IPAG |
| N=C(NCCCOc1ccc(F)cc1)NCCCOc1ccc(F)cc1 [compound 3] |  |  |  |  |  |  | Sigma1 binding affinity (in words) (Sigma1): no affinity |
| N=C(NCCCOc1ccc(F)cc1)Nc1ccc(Cl)cc1 [compound 4, 1-(4-chlorophenyl)-3-(3-(4-fluorophenoxy)propyl)guanidine] |  | 3000 to 20000 nM | >6 h |  | not acutely cytotoxic | >6 h | Cmax [2]: 691 ng/g; V ([3]; Data set 1): 91.0 L/kg; V ([3]; Data set 2): 57.6 L/kg; AUC ([3]; Data set 1): 57 ng·h/mL; AUC ([3]; Data set 2): 71 ng·h/mL; clearance ([3]; Data set 1): 586 mL/min/kg; clearance ([3]; Data set 2): 469 mL/min/kg; dose escalation of exposure, oral 10 mg/kg to 30 mg/kg ([3]; oral route, 10 mg/kg to 30 mg/kg): < 3 fold |
| COc1ccc(NC(=N)NCCCOc2ccc(F)cc2)cc1 [compound 5] |  | 3000 to 20000 nM | >6 h | 5–10 fold | not acutely cytotoxic | >6 h |  |
| N=C(NCCCOc1ccc(F)cc1)Nc1ccc(C(F)(F)F)cc1 [compound 6] |  |  |  | 5–10 fold |  |  |  |
